What was measured:
Amaranthus hybridus = test: Post-emergence herbicidal activity, efficacy on Amaranthus hybridus (Colby method); type: in vivo
Procedure: (§1) The following products were used for evaluating the weed control efficacy of present herbicidal combinations.
(§2) Methodology: Trials were carried out to evaluate the efficacy of the combinations comprising L-glufosinate ammonium and additional herbicides on Amaranthus genus weeds.
(§3) The soil used was sandy clay loam-sand: 68.0%; silt: 8.0%; clay: 24.0%.
(§4) All treatments were in 3 replications per treatment with a spray volume of 150 L/ha.
(§5) Efficacy Evaluation: The expected efficacy of the combination comprising L-glufosinate ammonium and additional herbicides was calculated using the well-established Colby method.
In the Colby method, the expected (or predicted) response of a combination of herbicides is calculated by taking the product of the observed response for each individual component of the combination when applied alone, divided by 100, and subtracting this value from the sum of the observed response for each component when applied alone. An unexpected enhancement in efficacy of the combination is then determined by comparing the observed response of the combination to the expected (or predicted) response as calculated from the observed response of each individual component alone. If the observed response of the combination is greater than the expected (or predicted) response, or stated conversely, if the difference between the observed and expected response is greater than zero, then the combination is said to be synergistic or unexpectedly effective (Colby, S. R., Weeds, 1967(15), p. 20-22). The Colby method requires only a single dose of each herbicide applied alone and the mixture of both doses. The formula used to calculate the expected efficacy (EE) which was compared with the observed efficacy (OE) to determine the efficacy of the present disclosure is explained herein:
The expected efficacy for a combination of two active ingredients is as follows:
The expected efficacy for a combination of three active ingredients is as follows:
[formula] • wherein, • A=Observed efficacy of active ingredient A at the same concentration as used in the mixture. • B=Observed efficacy of the active ingredient B at the same concentration as used in the mixture. • C=Observed efficacy of the active ingredient C at the same concentration as used in the mixture.
Experiment was conducted to assess the efficacy of herbicidal combination comprising L-glufosinate ammonium (glufosinate-P-ammonium) and saflufenacil to control the weed, Amaranthus hybridus.
The percentage efficacy was calculated after 3 days of applications (DAA). The target weed was Amaranthus hybridus, and the concentration of the herbicide and the results are recorded in Table 7.
Experiment was conducted to assess the efficacy of herbicidal combination comprising L-glufosinate ammonium, saflufenacil and triclopyr to control the weed Amaranthus hybridus.
The percentage efficacy was calculated after 3 DAA. The target weed was Amaranthus hybridus, and the concentration of the herbicide and the results are recorded in Table 8.
Experiment was conducted to assess the efficacy of herbicidal combination comprising L-glufosinate ammonium, saflufenacil and 2,4-D Choline to control the weed, Amaranthus hybridus.
The percentage efficacy was calculated after 3 DAA. The target weed was Amaranthus hybridus, and the concentration of the herbicide and the results are recorded in Table 9.
Experiment was conducted to assess the efficacy of herbicidal combination comprising L-glufosinate ammonium and quizalofop-ethyl to control the weed, Amaranthus hybridus.
The percentage efficacy was calculated after 3 DAA and 14 DAA. The target weed was Amaranthus hybridus, and the concentration of the herbicide and the results are recorded in Table 10.
Experiment was conducted to assess the efficacy of herbicidal combination comprising L-glufosinate ammonium and quizalofop-p-tefuryl to control the weed, Amaranthus hybridus
The percentage efficacy was calculated after 3 DAA and 14 DAA.

Amaranthus viridis = test: Post-emergence herbicidal activity, efficacy on Amaranthus viridis (Colby method); type: in vivo
Procedure: as §1, §2, §3, §4, §5
In the Colby method, the expected (or predicted) response of a combination of herbicides is calculated by taking the product of the observed response for each individual component of the combination when applied alone, divided by 100, and subtracting this value from the sum of the observed response for each component when applied alone. An unexpected enhancement in efficacy of the combination is then determined by comparing the observed response of the combination to the expected (or predicted) response as calculated from the observed response of each individual component alone. […]
The percentage efficacy was calculated after 3 DAA and 7 DAA. The target weed was Amaranthus viridis, and the concentration of the herbicide and the results are recorded in Table 12. […]

C[N+](C)(C)CCO.O=C([O-])COc1ccc(Cl)cc1Cl [2,4-D Choline]
Observed efficacy (%) of 2,4-D Choline (228 g a.i./ha) (Amaranthus hybridus; Table 9, 3 DAA, 228 g a.i./ha): 95%

CS(=O)(=O)c1ccc(C(=O)C2C(=O)CCCC2=O)c([N+](=O)[O-])c1 [Mesotrione]
Observed efficacy (%) of Mesotrione (100 g a.i./ha) (Amaranthus viridis; Table 12, 3 DAA): 10% | Observed efficacy (%) of Mesotrione (100 g a.i./ha) (Amaranthus viridis; Table 12, 7 DAA): 30%

CC(C)N(C)S(=O)(=O)NC(=O)c1cc(-n2c(=O)cc(C(F)(F)F)n(C)c2=O)c(F)cc1Cl [Saflufenacil]
Observed efficacy (%) of Saflufenacil (30 g a.i./ha) (Amaranthus hybridus; Table 7, 3 DAA): 50% | Observed efficacy (%) of Saflufenacil (30 g a.i./ha) (Amaranthus hybridus; Table 8, 3 DAA): 50% | Observed efficacy (%) of Saflufenacil (30 g a.i./ha) (Amaranthus hybridus; Table 9, 3 DAA): 50%

O=C(O)COc1nc(Cl)c(Cl)cc1Cl [Triclopyr]
Observed efficacy (%) of Triclopyr (228 g a.i./ha) (Amaranthus hybridus; Table 8, 3 DAA, 228 g a.i./ha): 95%

CCOC(=O)C(C)Oc1ccc(Oc2cnc3cc(Cl)ccc3n2)cc1 (centres unmarked) [quizalofop-ethyl, Quizalofop-ethyl]
Observed efficacy (%) of quizalofop-ethyl (25 g a.i./ha) (Amaranthus hybridus; Table 10, 3 DAA): 0% | Observed efficacy (%) of quizalofop-ethyl (25 g a.i./ha) (Amaranthus hybridus; Table 10, 14 DAA): 0%

C[C@@H](Oc1ccc(Oc2cnc3cc(Cl)ccc3n2)cc1)C(=O)OCC1CCCO1 (some centres unmarked) [quizalofop-p-tefuryl, Quizalofop-p-tefuryl]
Observed efficacy (%) of quizalofop-p-tefuryl (25 g a.i./ha) (Amaranthus hybridus; Table 11, 3 DAA): 0% | Observed efficacy (%) of quizalofop-p-tefuryl (25 g a.i./ha) (Amaranthus hybridus; Table 11, 14 DAA): 0%
